The source of these data is patent publication US20220062243A1, “P14-Kinase Inhibitors with Anti-Cancer Activity” (The Board of Trustees of the Leland Stanford Junior …, priority 2019, published 2022).

Each structure is given as a SMILES string. pIC50: −log10 of the molar value.

Chain of PI4K-IIIβ (Q9UBF8 whole entry): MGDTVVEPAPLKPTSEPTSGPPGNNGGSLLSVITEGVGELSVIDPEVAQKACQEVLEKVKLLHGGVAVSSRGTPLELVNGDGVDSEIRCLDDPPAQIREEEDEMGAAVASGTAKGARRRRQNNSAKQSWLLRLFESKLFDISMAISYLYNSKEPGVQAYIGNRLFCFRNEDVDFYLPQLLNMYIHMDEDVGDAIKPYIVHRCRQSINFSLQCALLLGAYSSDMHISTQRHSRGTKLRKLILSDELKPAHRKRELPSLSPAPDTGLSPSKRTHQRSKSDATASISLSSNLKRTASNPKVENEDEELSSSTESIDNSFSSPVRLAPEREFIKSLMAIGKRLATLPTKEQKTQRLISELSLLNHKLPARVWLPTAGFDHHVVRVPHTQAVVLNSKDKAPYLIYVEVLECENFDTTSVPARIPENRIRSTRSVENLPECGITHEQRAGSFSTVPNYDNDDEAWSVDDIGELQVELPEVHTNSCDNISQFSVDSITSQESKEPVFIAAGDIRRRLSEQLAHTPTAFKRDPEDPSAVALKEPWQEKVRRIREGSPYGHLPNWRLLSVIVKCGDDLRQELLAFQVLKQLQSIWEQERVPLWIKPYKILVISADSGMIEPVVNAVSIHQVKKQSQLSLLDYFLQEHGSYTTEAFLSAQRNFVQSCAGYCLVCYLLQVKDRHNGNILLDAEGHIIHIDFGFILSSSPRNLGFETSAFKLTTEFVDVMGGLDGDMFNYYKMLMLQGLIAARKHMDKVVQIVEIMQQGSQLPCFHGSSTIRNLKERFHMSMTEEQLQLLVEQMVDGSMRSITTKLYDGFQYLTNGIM

The target of the experiment is PI4K-IIIβ (Homo sapiens, UniProt Q9UBF8). Kind of experiment: PI-kinase assay (membrane capture assay for lipid kinase activity), PI4KIIIβ. The conditions noted are these: read-out: PI4KIIIβ kinase activity (IC50 class). The experiment is classed as biochemical. The procedure:
PI4-kinase inhibition can be determined by a kinase activity assay, e.g., by an assay that determines the level of incorporation of radiolabeled phosphate from [γ-^32P]-ATP into a substrate molecule after treatment with a subject compound, relative to a control, by measuring the beta-particle emission rate using a scintillation counter or phosphorimaging.
PI-kinase assay: Compounds are tested in C.1.1. PI kinase assays as described by Shokat et al., “A membrane capture assay for lipid kinase activity.” Nat. Protoc. […] Selected compounds of Table 1 and 2 were prepared and tested for inhibition activity in a variety of kinase assays.
One may read the pIC50 as the negative decadic logarithm of the IC50, by convention in mol/L. On to `COc1ccc(-c2sc(NCC3CCCCC3)nc2C)cc1S(=O)(=O)NC1CCN(C2CCCCC2)CC1` [Compound S-136, 5-[2-(cyclohexylmethylamino)-4-methyl-thiazol-5-yl]-N-(1-cyclohexyl-4-piperidyl)-2-methoxy-benzenesulfonamide], for which the pIC50 was > 7.00.

Turning to `COc1ccc(-c2sc(N[C@H](C)CC3CCCCC3)nc2C)cc1S(=O)(=O)NC1CCNCC1` [Compound S-145, 5-[2-[[(1R)-2-cyclohexyl-1-methyl-ethyl]amino]-4-methyl-thiazol-5-yl]-2-methoxy-N-(4-piperidyl)benzenesulfonamide], the negative-log IC50 (pIC50) is > 7.00.

On to `COc1ccc(-c2sc(N[C@H](C)C3CCCCC3)nc2C)cc1S(=O)(=O)NC1CCNCC1` [Compound S-147, 5-[2-[[(1R)-1-cyclohexylethyl]amino]-4-methyl-thiazol-5-yl]-2-methoxy-N-(4-piperidyl)benzenesulfonamide], for which the negative-log IC50 (pIC50) was > 7.00.

On to `COc1ccc(-c2sc(N[C@H](C)C3CCCCC3)nc2C)cc1S(=O)(=O)NC1CCCNC1` (stereo partly drawn) [Compound S-148, 5-[2-[[(1R)-1-cyclohexylethyl]amino]-4-methyl-thiazol-5-yl]-2-methoxy-N-(3-piperidyl)benzenesulfonamide], for which the negative logarithm of the IC50 (pIC50) was > 7.00.

In the case of `COc1ccc(-c2sc(NC(=O)CC3CCCC3)nc2C)cc1S(=O)(=O)N[C@H]1CC[C@H](O)CC1` [Compound S-151, 2-cyclopentyl-N-[5-[3-[(4-hydroxycyclohexyl)sulfamoyl]-4-methoxy-phenyl]-4-methyl-thiazol-2-yl]acetamide], the pIC50 was > 7.00.

With `COc1ccc(-c2sc(NC(=O)CC3CCCC3)nc2C)cc1S(=O)(=O)NCCCCO` [Compound S-152], the pIC50 is > 7.00.

For `COc1ccc(-c2sc(NC(=O)CC3CCCC3)nc2C)cc1S(=O)(=O)N1CC[C@@H](O)C1` [Compound S-153, 2-cyclopentyl-N-[5-[3-[(3R)-3-hydroxypyrrolidin-1-yl]sulfonyl-4-methoxy-phenyl]-4-methyl-thiazol-2-yl]acetamide], the negative logarithm of the IC50 (pIC50) is > 7.00.

Turning to `COc1ccc(-c2sc(NC(=O)CCC3CCCC3)nc2C)cc1S(=O)(=O)N[C@H]1CC[C@H](O)CC1` [Compound S-156, 3-cyclopentyl-N-[5-[3-[(4-hydroxycyclohexyl)sulfamoyl]-4-methoxy-phenyl]-4-methyl-thiazol-2-yl]propanamide], the pIC50 was > 7.00.

With `COc1ccc(-c2sc(NC(=O)CCC3CCCC3)nc2C)cc1S(=O)(=O)NC1CCNCC1` [Compound S-160, 3-cyclopentyl-N-[5-[4-methoxy-3-(4piperidylsulfamoyl)phenyl]-4-methyl-thiazol-2-yl]propanamide], the negative logarithm of the IC50 (pIC50) is > 7.00.

In the case of `COc1ccc(-c2sc(NC3CCCCC3)nc2C)cc1S(=O)(=O)N[C@H]1CC[C@H](O)CC1` [Compound S-166, 5-[2-(cyclohexylamino)-4-methyl-thiazol-5-yl]-N-(4-hydroxycyclohexyl)-2-methoxy-benzenesulfonamide], the pIC50 was > 7.00.

For `COc1ccc(-c2sc(NC3CCCCC3)nc2C)cc1S(=O)(=O)N[C@H]1CC[C@@H](O)CC1` [Compound S-167, 5-[2-(cyclohexylamino)-4-methyl-thiazol-5-yl]-N-(4-hydroxycyclohexyl)-2-methoxy-benzenesulfonamide], the negative-log IC50 (pIC50) was > 7.00.

On to `COc1ccc(-c2sc(NC(=O)CC3CCOCC3)nc2C)cc1S(=O)(=O)Nc1cc(C)cc(O)c1` [Compound S-169, N-[5-[3-[(3-hydroxy-5-methyl-phenyl)sulfamoyl]-4-methoxy-phenyl]-4-methyl-thiazol-2-yl]-2-tetrahydropyran-4-yl-acetamide], for which the pIC50 is > 7.00.

`COc1ccc(-c2sc(NC(=O)CC3CCOCC3)nc2C)cc1S(=O)(=O)Nc1ccc(F)cc1` [Compound S-170, N-[5-[3-[(4-fluorophenyl)sulfamoyl]-4-methoxy-phenyl]-4-methyl-thiazol-2-yl]-2-tetrahydropyran-4-yl-acetamide]: the negative logarithm of the IC50 (pIC50) was > 7.00.

`COc1ccc(-c2sc(NC(=O)CC3CCCC3)nc2C)cc1S(=O)(=O)NC1CCCNC1` (centres unmarked) [Compound S-173, 2-cyclopentyl-N-[5-[4-methoxy-3-(3piperidylsulfamoyl)phenyl]-4-methyl-thiazol-2-yl]acetamide;2,2,2-trifluoroacetic acid]: the pIC50 is > 7.00.

As to `COc1ccc(-c2sc(N[C@@H](C)C3CCCCC3)nc2C)cc1S(=O)(=O)N[C@H]1CC[C@H](O)CC1` [Compound S-183, 5-[2-[[(1S)-1-cyclohexylethyl]amino]-4-methyl-thiazol-5-yl]-N-(4-hydroxycyclohexyl)-2-methoxy-benzenesulfonamide], the pIC50 is > 7.00.

Take `Cc1ccc(-c2sc(NC(=O)CC3CCCC3)nc2C)cc1S(=O)(=O)NC1CCNCC1` [Compound S-188, 2-cyclopentyl-N-[4-methyl-5-[4-methyl-3-(4-piperidylsulfamoyl)phenyl]thiazol-2-yl]acetamide]: the negative logarithm of the IC50 (pIC50) was > 7.00.

With `Cc1ccc(-c2sc(NC(=O)CC3CCCC3)nc2C)cc1S(=O)(=O)NC1CCCNC1` (centres unmarked) [Compound S-189, 2-cyclopentyl-N-[4-methyl-5-[4-methyl-3-(3-piperidylsulfamoyl)phenyl]thiazol-2-yl]acetamide], the pIC50 was > 7.00.

Consider `COc1ccc(-c2sc(N[C@H](C)C3CCCCC3)nc2C)cc1S(=O)(=O)N[C@H]1CC[C@H](O)CC1` [Compound S-193, 5-[2-[[(1R)-1-cyclohexylethyl]amino]-4-methyl-thiazol-5-yl]-N-(4-hydroxycyclohexyl)-2-methoxy-benzenesulfonamide], for which the negative logarithm of the IC50 (pIC50) is > 7.00.

`COc1ccc(-c2sc(N[C@H](C)C3CCCCC3)nc2C)cc1S(=O)(=O)N[C@@H]1CCNC1` [Compound S-197, 5-[2-[[(1R)-1-cyclohexylethyl]amino]-4-methyl-thiazol-5-yl]-2-methoxy-N-[(3R)-pyrrolidin-3-yl]benzenesulfonamide]: the negative-log IC50 (pIC50) was > 7.00.

With `COc1ccc(-c2sc(N[C@H](C)C3CCCCC3)nc2C)cc1S(=O)(=O)N[C@H]1CC[C@@H](O)CC1` [Compound S-198, 5-[2-[[(1R)-1-cyclohexylethyl]amino]-4-methyl-thiazol-5-yl]-N-(4-hydroxycyclohexyl)-2-methoxy-benzenesulfonamide], the negative logarithm of the IC50 (pIC50) was 6.00 to 7.00.

Take `COc1ccc(-c2sc(NCC3CCCCC3)nc2C)cc1S(=O)(=O)NC1CCCC(O)C1` (centres unmarked) [Compound S-199, 5-[2-(cyclohexylmethylamino)-4-methyl-thiazol-5-yl]-N-(3-hydroxycyclohexyl)-2-methoxy-benzenesulfonamide]: the negative logarithm of the IC50 (pIC50) is > 7.00.

As for `COc1ccc(-c2sc(N[C@H](C)C3CCCCC3)nc2C)cc1S(=O)(=O)N[C@H]1CCNC1` [Compound S-201, 5-[2-[[(1R)-1-cyclohexylethyl]amino]-4-methyl-thiazol-5-yl]-2-methoxy-N-[(3S)-pyrrolidin-3-yl]benzenesulfonamide], the pIC50 was > 7.00.

Consider `COc1ccc(-c2sc(NCCC3CCCCC3)nc2C)cc1S(=O)(=O)NC1CCNCC1` [Compound S-202, 5-[2-(2-cyclohexylethylamino)-4-methyl-thiazol-5-yl]-2-methoxy-N-(4-piperidyl)benzenesulfonamide], for which the pIC50 was > 7.00.

For `COc1ccc(-c2sc(N[C@@H](C)C3CCCCC3)nc2C)cc1S(=O)(=O)N[C@H]1CC[C@@H](O)CC1` [Compound S-206, 5-[2-[[(1S)-1-cyclohexylethyl]amino]-4-methyl-thiazol-5-yl]-N-(4-hydroxycyclohexyl)-2-methoxy-benzenesulfonamide], the pIC50 is 5.00 to 6.00.

`COc1ccc(-c2sc(NCCC3CCCCC3)nc2C)cc1S(=O)(=O)NC1CCC(O)C1` (centres unmarked) [Compound S-214, 5-[2-(2-cyclohexylethylamino)-4-methyl-thiazol-5-yl]-N-(3-hydroxycyclopentyl)-2-methoxy-benzenesulfonamide]: the pIC50 was 6.00 to 7.00.

For `COc1ccc(-c2sc(NC(C)C)nc2C)cc1S(=O)(=O)N[C@H]1CC[C@H](O)CC1` [Compound S-215, N-(4-hydroxycyclohexyl)-5-[2-(isopropylamino)-4-methyl-thiazol-5-yl]-2-methoxy-benzenesulfonamide], the negative-log IC50 (pIC50) is > 7.00.

With `COc1ccc(-c2sc(NC(C)(C)C)nc2C)cc1S(=O)(=O)N[C@H]1CC[C@H](O)CC1` [Compound S-216, 5-[2-(tert-butylamino)-4-methyl-thiazol-5-yl]-N-(4-hydroxycyclohexyl)-2-methoxy-benzenesulfonamide], the negative-log IC50 (pIC50) is > 7.00.

In the case of `COc1ccc(-c2sc(NC(C)(C)C)nc2C)cc1S(=O)(=O)NC1CCCC(O)C1` (centres unmarked) [Compound S-218, 5-[2-(tert-butylamino)-4-methyl-thiazol-5-yl]-N-(3-hydroxycyclohexyl)-2-methoxy-benzenesulfonamide], the pIC50 is > 7.00.

For `COc1ccc(-c2sc(NC(C)(C)C)nc2C)cc1S(=O)(=O)NC1CCNCC1` [Compound S-219, 5-[2-(tert-butylamino)-4-methyl-thiazol-5-yl]-2-methoxy-N-(4-piperidyl)benzenesulfonamide], the pIC50 was > 7.00.

Take `COc1ccc(-c2sc(NC(C)(C)C)nc2C)cc1S(=O)(=O)NC1CCCNC1` (centres unmarked) [Compound S-220, 5-[2-(tert-butylamino)-4-methyl-thiazol-5-yl]-2-methoxy-N-(3-piperidyl)benzenesulfonamide]: the pIC50 is > 7.00.

For `COc1ccc(-c2sc(NCC(C)C)nc2C)cc1S(=O)(=O)N[C@H]1CC[C@H](O)CC1` [Compound S-221, N-(4-hydroxycyclohexyl)-5-[2-(isobutylamino)-4-methyl-thiazol-5-yl]-2-methoxy-benzenesulfonamide], the pIC50 was > 7.00.

For `COc1ccc(-c2sc(NCC(C)C)nc2C)cc1S(=O)(=O)N[C@H]1CC[C@@H](O)CC1` [Compound S-222, N-(4-hydroxycyclohexyl)-5-[2-(isobutylamino)-4-methyl-thiazol-5-yl]-2-methoxy-benzenesulfonamide], the pIC50 was > 7.00.
